Experimental data: PMC9699003, “Arene Variation of Highly Cytotoxic Tridentate Naphthoquinone-Based Ruthenium(II) Complexes and In-Depth In Vitro Studies” (Pharmaceutics, 2022)

Legend:
[1] = tested on: SW480 cells; test: Cell cycle distribution (PI staining, flow cytometry); assay type: cell-based, human; details: SW480, 24 h
Experimental: (§1) For the flow-cytometric determination of cell cycle distribution, CH1/PA-1 (8 × 10^4 cells/well) and SW480 (1.2 × 10^5 cells/well) cells were seeded into 12-well plates (CytoOne, tissue culture treated) in 1 mL supplemented MEM. In the first 24 h, the cells were allowed to settle and resume exponential growth. […] Gemcitabine (Sigma-Aldrich, 0.01 and 0.05 µM) and etoposide (Sigma-Aldrich, 0.25, 0.5 and 1 µM) were used as positive controls. After removal of the treatment medium, cells were washed with 1 mL PBS and trypsinized. Cells were collected in Eppendorf tubes and centrifuged (300 g, 3 min), and the supernatant was discarded. In the following step, cells were washed with 1 mL PBS and resuspended in 500 µL PI/HFS buffer (0.1% v/v Triton X-100, 0.1% w/v sodium citrate, in PBS) containing 25 µg/mL propidium iodide (PI, 1.0 mg/mL, Sigma-Aldrich). The staining was carried out overnight at 4 °C in the dark, and 200 µL of the cell suspension was loaded into 96-well round bottom plates (Falcon). Samples were measured with a Millipore Guava easyCyte 8HT flow cytometer with GuavaSoft™ software in the InCyte-modus, and 10,000 events/sample were detected. Data were analyzed with FlowJo software v 10.8.1 (Tree Star, Ashland, OR, USA) using Watson algorithm. Percentages of cells in the three cell cycle phases (G1/G0, S and G2/M) were calculated by integrating the resulting histograms of fluorescence signals (Figures S29 and S30). Experiments were repeated at least three times. For statistical evaluation, an unpaired t-test with Welch’s correction was performed by using GraphPad PRISM software.

[2] = tested on: CH1/PA-1 cells; test: as above; assay type: cell-based, human; details: CH1/PA-1, 24 h
Experimental: as §1

[3] = tested on: SW480 cells; test: Cellular ruthenium accumulation (ICP-MS); assay type: cell-based, human; details: SW480, 2 h incubation, 37 °C
Experimental: SW480 cells were seeded at densities of 1.8 × 10^5 cells/well in 12-well plates (CytoOne, tissue culture treated) in 1 mL of supplemented MEM per well. (As CH1/PA-1 cells tend to detach during the required washing steps, cellular accumulation studies were performed only in SW480 cells). After 24 h, compounds dissolved in DMSO and diluted in MEM were added to the cells to final concentrations of 2 µM and 5 µM, and cells were incubated at 37 °C for 2 h. During incubation, the cell number was determined from three control wells of a plate seeded in parallel to the treatment plates. After the 2 h incubation, the medium was removed and all wells were washed with 3 × 1 mL PBS, and cells were lysed by adding 400 µL HNO3 per well for 1 h at room temperature. An amount of 300 µL of each lysate was added to 7.7 mL MilliQ water to get a total volume of 8 mL, and determination of the ruthenium content was carried out by ICP-MS. The measured amount of accumulated metal was normalized to the cell number and results were given in fg [Ru]/cell from at least three independent experiments. An Agilent 7800 ICP-MS instrument (Agilent Technologies, Tokyo, Japan) equipped with an Agilent SPS 4 autosampler (Agilent Technologies, Tokyo, Japan) was used to determine the ruthenium content. The ICP-MS parameters were tuned on a daily base to achieve high sensitivity. The ICP-MS was equipped with a MicroMist nebulizer with a sample uptake rate of ∼0.2 mL/min and standard nickel cones. The Agilent MassHunter software package (Workstation Software, Version C.01.04, 2018) was used for data evaluation. The instrumental parameters can be found in the supplementary information (Table S9).

[4] = tested on: SW480 cells; test: Apoptosis assay (annexin V-FITC/PI, flow cytometry); details: SW480, 24 h, mean ± SD
Experimental: Cell death induction was quantitatively analyzed via flow cytometry using double staining with FITC-conjugated annexin V (eBioscience, San Diego, CA, USA) and propidium iodide (PI, 1.0 mg/mL, Sigma-Aldrich). SW480 cells were seeded into 24-well plates (7 × 10^4 cells/well) in 600 µL MEM per well and allowed to settle for 24 h. Afterward, cells were exposed to two or three different concentrations (0.1–100 µM) of the compounds (based on their cytotoxic activity) for 24 h. After treatment, the medium was collected, and cells were washed once with 37 °C warm PBS and harvested. Following trypsinization, the cell suspension was added to the pre-collected medium and cells were centrifuged (300 g, 3 min). The supernatant was removed, and the cell pellet was resuspended with 1.5 µL FITC-conjugated annexin V in 150 µL binding buffer (10 mM HEPES/NaOH pH 7.4, 140 mM NaCl and 2.5 mM CaCl2) and incubated at 37 °C for 15 min. An amount of 1 µL of propidium iodide (PI, Thermo Fisher) was added shortly before flow-cytometric analysis using a Guava easyCyte 8HT instrument (Merck Millipore, Burlington, MA, USA) with InCyte software. Results were quantified by using the FlowJo software (TreeStar). At least three independent experiments were conducted.

[5] = tested on: SW480 cells; test: Colony formation assay; assay type: cell-based, human; details: SW480, 11 days, relative to untreated control
Experimental: For the colony formation assay, SW480 cells were seeded at a density of 350 cells/2 mL into each well of 6-well plates (CytoOne, tissue culture treated) and left to adhere for 24 h. To determine the long-term effects of the test compounds, the cells were exposed to them for 11 days at 37 °C and 5% CO2. After incubation, the wells were gently washed with 1 mL cold PBS and the colonies were fixed with 1 mL cold (4 °C) 100% methanol (Thermo Fisher, Waltham, MA, USA) for 30 min at 4 °C and washed with 1 mL PBS again. The fixed colonies were stained with 1 mL of 0.5% w/v crystal violet (Sigma-Aldrich) in methanol for 2 min and the plates were washed under tap water. After drying the plates, images of the wells were captured, and colonies were counted with the colony counting function of Fusion Fx7 software (Vilber Lourmat, Collégien, France). Results were normalized to untreated controls. Data are averaged from at least three independent experiments.

## CC1=C([O-])C([O-])(n2cccn2)c2ccccc2C1=O.[Ru+2].c1ccc2c(c1)CCC2 (racemic) [Compound 4]
[1]; 0.31 µM
  Cells in G1/G0 phase: 24.7 ± 9.2%
  Cells in G2/M phase: 36.1 ± 3.0%
  Cells in S phase: 42.1 ± 7.1%
[1]; 0.63 µM
  Cells in G1/G0 phase: 19.0 ± 4.6%
  Cells in G2/M phase: 45.8 ± 4.2%
  Cells in S phase: 42.0 ± 3.5%
[1]; 1.25 µM
  Cells in G1/G0 phase: 20.7 ± 5.3%
  Cells in G2/M phase: 25.0 ± 5.8%
  Cells in S phase: 57.1 ± 4.5%
[2]; 50 µM
  Cells in G1/G0 phase: 25.1 ± 4.7%
  Cells in G2/M phase: 39.8 ± 2.9%
  Cells in S phase: 38.4 ± 1.7%
[2]; 100 µM
  Cells in G1/G0 phase: 23.9 ± 4.7%
  Cells in G2/M phase: 42.2 ± 4.7%
  Cells in S phase: 38.3 ± 2.3%
[2]; 200 µM
  Cells in G1/G0 phase: 24.5 ± 3.8%
  Cells in G2/M phase: 40.0 ± 3.8%
  Cells in S phase: 39.1 ± 3.9%
[3]; 2 µM
  Ru [102]/cell (cellular accumulation): 44 ± 3 fg
[3]; 5 µM
  Ru [102]/cell (cellular accumulation): 100 ± 15 fg
[4]; 0.1 µM
  early apoptotic cells: 1.1 ± 0.5%
  late apoptotic cells: 2.1 ± 0.4%
  necrotic cells: 1.7 ± 1.1%
  viable cells: 95 ± 2%
[4]; 1 µM
  early apoptotic cells: 1.1 ± 0.7%
  late apoptotic cells: 2.4 ± 1.2%
  necrotic cells: 0.93 ± 0.65%
  viable cells: 96 ± 2%
[4]; 10 µM
  early apoptotic cells: 1.0 ± 0.4%
  late apoptotic cells: 8.3 ± 4.9%
  necrotic cells: 3.4 ± 4.0%
  viable cells: 87 ± 8%
[5]; 0.31 µM
  Number of colonies: 22 ± 5%
[5]; 0.63 µM
  Number of colonies: 5.1 ± 2.1%
[5]; 1.25 µM
  Number of colonies: 0.82 ± 0.85%

## CC1=C([O-])C([O-])(n2cccn2)c2ccccc2C1=O.[Ru+2].c1ccccc1 (racemic) [Compound 2]
[1]; 5 µM
  Cells in G1/G0 phase: 36.0 ± 6.7%
  Cells in G2/M phase: 32.0 ± 2.6%
  Cells in S phase: 34.2 ± 3.8%
[1]; 10 µM
  Cells in G1/G0 phase: 22.6 ± 5.7%
  Cells in G2/M phase: 40.9 ± 4.2%
  Cells in S phase: 38.8 ± 7.9%
[1]; 20 µM
  Cells in G1/G0 phase: 22.3 ± 6.3%
  Cells in G2/M phase: 27.9 ± 9.0%
  Cells in S phase: 52.1 ± 3.3%
[2]; 100 µM
  Cells in G1/G0 phase: 29.9 ± 5.7%
  Cells in G2/M phase: 37.0 ± 6.1%
  Cells in S phase: 39.9 ± 1.4%
[2]; 150 µM
  Cells in G1/G0 phase: 30.8 ± 7.1%
  Cells in G2/M phase: 38.3 ± 5.3%
  Cells in S phase: 36.5 ± 3.3%
[2]; 200 µM
  Cells in G1/G0 phase: 29.7 ± 8.5%
  Cells in G2/M phase: 33.0 ± 3.0%
  Cells in S phase: 39.1 ± 0.8%
[3]; 2 µM
  Ru [102]/cell (cellular accumulation): 4.5 ± 0.3 fg
[3]; 5 µM
  Ru [102]/cell (cellular accumulation): 11 ± 2 fg
[4]; 1 µM
  early apoptotic cells: 1.1 ± 0.4%
  late apoptotic cells: 2.0 ± 0.2%
  necrotic cells: 1.4 ± 0.8%
  viable cells: 95 ± 1%
[4]; 10 µM
  early apoptotic cells: 1.0 ± 0.3%
  late apoptotic cells: 2.0 ± 0.3%
  necrotic cells: 1.5 ± 0.8%
  viable cells: 96 ± 1%
[5]; 5 µM
  Number of colonies: 48 ± 9%
[5]; 10 µM
  Number of colonies: 20 ± 4%
[5]; 20 µM
  Number of colonies: 3.5 ± 1.5%
